From patent US9073955B2, “2-amino-4-arylthiazole compounds as TRPA1 antagonists” (Glenmark Pharmaceuticals, S.A., priority 2010, dated 2015)
Where a name gives a salt, the structure may show the parent alone. Read-outs that look alike come from different tables or passages of the source.

Target: T1, Human TRPA1 (Homo sapiens, UniProt O75762)
T1 construct: expressed in transfected cells; host or cells: CHO cells (grown with 400 μg/ml G-418)
Experiment: 45Calcium uptake assay: inhibition of AITC induced cellular uptake of radioactive calcium
Assay type: cell-based
Settings: human TRPA1 expressing CHO cells, AITC 30 μM
Description: The illustrative examples of the present invention were screened for TRPA1 activity according to a modified procedure described in (a) Tóth, A. et al. Life Sciences, 2003, 73, 487-498. ([…]. et al, Proc. Natl. Acad. Sci. U.S.A., 2007, 104, 13525-13530. The screening of the compounds can be carried out by other methods and procedures known to persons skilled in the art. Screening for TRPA1 Antagonist Using the ^45Calcium Uptake Assay: The inhibition of TRPA1 receptor activation was measured as inhibition of allyl isothiocyanate (AITC) induced cellular uptake of radioactive calcium. Test compounds were dissolved in 100% DMSO to prepare 10 mM stock and then diluted using plain medium with 0.1% BSA and 1.8 mM CaCl2 to get the desired concentration. The final concentration of DMSO in the reaction was 0.5% (v/v). Human TRPA1 expressing CHO cells were grown in F-12 DMEM medium with 10% FBS, 1% penicillin-streptomycin solution, and 400 μg/ml of G-418. Cells were seeded 24 h prior to the assay in 96 well plates so as to get 50,000 cells per well on the day of experiment. Cells were treated with the test compounds for 10 minutes followed by the addition of AITC at a final concentration of 30 μM and 5 μCi/ml^45Ca^+2 for 3 minutes. Cells were washed and lysed using a buffer containing 1% Triton X-100, 0.1% deoxycholate and 0.1% SDS. Radioactivity in the lysate was measured in a Packard TopCount after addition of liquid scintillant. (Toth et al, Life Sciences (2003) 73, 487-498; McNamara C R et al, Proceedings of the National Academy of Sciences, (2007) 104, 13525-13530). Concentration response curves were plotted as a % of maximal response obtained in the absence of test antagonist. IC50 values can be calculated from concentration response curve by nonlinear regression analysis using GraphPad PRISM software.

[1] = 1.0 μM, read-out: Percentage inhibition at 1.0 μM
[2] = 10.0 μM, read-out: Percentage inhibition at 10.0 μM
[3] = CHO, read-out: Percentage inhibition at 1.0 μM, 1.0 μM
[4] = CHO, read-out: Percentage inhibition at 10.0 μM, 10.0 μM

T1 sequence (O75762 whole entry): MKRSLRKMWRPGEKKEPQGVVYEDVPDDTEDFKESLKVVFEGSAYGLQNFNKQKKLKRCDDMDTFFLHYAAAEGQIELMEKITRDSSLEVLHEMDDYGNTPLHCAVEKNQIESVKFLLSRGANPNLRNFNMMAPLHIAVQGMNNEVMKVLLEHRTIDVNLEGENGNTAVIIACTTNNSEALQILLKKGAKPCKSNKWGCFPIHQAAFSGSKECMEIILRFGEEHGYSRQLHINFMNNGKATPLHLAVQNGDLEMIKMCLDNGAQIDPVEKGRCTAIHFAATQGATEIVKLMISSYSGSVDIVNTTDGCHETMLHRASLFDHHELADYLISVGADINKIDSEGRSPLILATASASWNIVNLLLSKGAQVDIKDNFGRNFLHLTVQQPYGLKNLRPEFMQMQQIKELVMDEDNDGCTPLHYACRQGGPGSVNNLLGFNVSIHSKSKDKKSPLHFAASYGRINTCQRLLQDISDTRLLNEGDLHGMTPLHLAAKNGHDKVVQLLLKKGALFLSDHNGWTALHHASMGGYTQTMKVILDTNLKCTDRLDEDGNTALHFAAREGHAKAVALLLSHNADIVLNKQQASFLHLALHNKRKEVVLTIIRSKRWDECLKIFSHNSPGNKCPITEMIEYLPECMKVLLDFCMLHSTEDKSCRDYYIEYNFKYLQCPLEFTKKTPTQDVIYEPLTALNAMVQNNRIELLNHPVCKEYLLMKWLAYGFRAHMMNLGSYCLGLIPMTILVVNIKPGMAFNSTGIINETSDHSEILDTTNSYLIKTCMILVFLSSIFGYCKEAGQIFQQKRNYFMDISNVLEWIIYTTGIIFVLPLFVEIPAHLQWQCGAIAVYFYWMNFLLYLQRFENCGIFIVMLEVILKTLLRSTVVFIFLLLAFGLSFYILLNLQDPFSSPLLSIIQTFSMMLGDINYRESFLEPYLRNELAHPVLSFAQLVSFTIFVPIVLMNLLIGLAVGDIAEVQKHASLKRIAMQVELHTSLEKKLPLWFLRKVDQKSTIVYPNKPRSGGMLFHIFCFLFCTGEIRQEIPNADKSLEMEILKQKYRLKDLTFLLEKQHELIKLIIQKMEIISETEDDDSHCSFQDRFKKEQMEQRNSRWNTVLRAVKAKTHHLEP

Row | SMILES | inhibition at 1 µM [1] [%] | inhibition at 10 µM [2] [%] | IC50 [µM] | inhibition at 1 µM (CHO, 1.0 μM, read-out: Percentage inhibition at 1.0 μM) [%] | inhibition at 10 µM (CHO, 10.0 μM, read-out: Percentage inhibition at 10.0 μM) [%] | inhibition at 1 µM [3] [%] | inhibition at 10 µM [4] [%]
1 | CC(C)C(=O)OCn1c(-c2ccc(C(F)(F)F)c(F)c2)cs/c1=N\C(=O)Cc1csc2c1c(=O)n(C)c(=O)n2C [Example 1, [2-{[(1,3-Dimethyl-2,4-dioxo-1,2,3,4-tetrahydrothieno[2,3-d]pyrimidin-5-yl)acetyl]imino}-4-[3-fluoro-4-(trifluoromethyl)phenyl]-1,3-thiazol-3 (2H)-yl]methyl-2-methyl propanoate] | 68.1 | 90.3 | 0.1 to 0.5 | – | – | – | –
2 | CC(C)C(=O)OCn1c(-c2ccc(F)c(C(F)(F)F)c2F)cs/c1=N\C(=O)Cc1csc2c1c(=O)n(C)c(=O)n2C [Example 2, [4-[2,4-Difluoro-3-(trifluoromethyl)phenyl]-2-{[(1,3-dimethyl-2,4-dioxo-1,2,3,4-tetrahydrothieno[2,3-d]pyrimidin-5-yl)acetyl]imino}-1,3-thiazol-3(2H)-yl]methyl-2-methylpropanoate] | 54.8 | 70.2 | > 0.5 | – | – | – | –
3 | CC(C)[C@H](N)C(=O)OCn1c(-c2ccc(F)c(C(F)(F)F)c2F)cs/c1=N\C(=O)Cc1csc2c1c(=O)n(C)c(=O)n2C [Example 5, [4-[2,4-Difluoro-3-(trifluoromethyl)phenyl]-2-{[(1,3-dimethyl-2,4-dioxo-1,2,3,4-tetrahydrothieno[2,3-d]pyrimidin-5-yl)acetyl]imino}-1,3-thiazol-3 (2H)-yl]methyl L-valinate hydrochloride] | – | – | < 0.1 | 98.6 | 99.9 | – | –
4 | Cn1c(=O)c2c(CC(=O)/N=c3\scc(-c4ccc(F)c(C(F)(F)F)c4F)n3COC(=O)[C@@H]3CCCN3)csc2n(C)c1=O [Example 8, [4-[2,4-Difluoro-3-(trifluoromethyl)phenyl]-2-{[(1,3-dimethyl-2,4-dioxo-1,2,3,4-tetrahydrothieno[2,3-d]pyrimidin-5-yl)acetyl]imino}-1,3-thiazol-3(2H)-yl]methyl L-prolinate hydrochloride] | 96.5 | 98.3 | < 0.1 | – | – | – | –
5 | Cn1c(=O)c2c(CC(=O)/N=c3\scc(-c4ccc(C(F)(F)F)c(F)c4)n3COC(=O)C3CCNCC3)csc2n(C)c1=O [Example 9, [2-{[(1,3-Dimethyl-2,4-dioxo-1,2,3,4-tetrahydrothieno[2,3-d]pyrimidin-5-yl)acetyl]imino}-4-[3-fluoro-4-(trifluoromethyl)phenyl]-1,3-thiazol-3(2H)-yl]methylpiperidine-4-carboxylate hydrochloride] | 80.1 | 94.8 | 0.1 to 0.5 | – | – | – | –
6 | Cc1sc2c(c1CC(=O)/N=c1\scc(-c3ccc(F)c(C(F)(F)F)c3F)n1COP(=O)(O)O)c(=O)n(C)c(=O)n2C [Example 15, 4-(2,4-Difluoro-3-(trifluoromethyl)phenyl)-2-((2-(1,3,6-trimethyl-2,4-dioxo-1,2,3,4-tetrahydrothieno[2,3-(1]pyrimidin-5-yl)acetyl)imino)thiazol-3 (2H)-yl)methyl dihydrogen phosphate] | 81.2 | 98.5 | 0.1 to 0.5 | – | – | – | –
7 | Cc1sc2c(c1CC(=O)/N=c1\scc(-c3ccc(F)c(C(F)(F)F)c3F)n1COP(=O)(O)O)c(=O)n(C)c(=O)n2C [Example 16, Disodium(4-(2,4-difluoro-3-(trifluoromethyl)phenyl)-2-((2-(1,3,6-trimethyl-2,4-dioxo-1,2,3,4-tetrahydrothieno[2,3-d]pyrimidin-5-yl)acetyl)imino)thiazol-3(2H)-yl)methyl phosphate] | – | – | > 0.5 | – | – | 48.2 | 92.7
8 | CCc1sc2c(c1CC(=O)/N=c1\scc(-c3ccc(C(F)(F)F)c(F)c3)n1COP(=O)(O)O)c(=O)n(C)c(=O)n2C [Example 17, [2-{[(6-ethyl-1,3-dimethyl-2,4-dioxo-1,2,3,4-tetrahydrothieno[2,3-d]pyrimidin-5-yl)acetyl]imino}-4-[3-fluoro-4-(trifluoromethyl)phenyl]-1,3-thiazol-3 (2H)-yl]methyl dihydrogen phosphate] | 20.8 | 96.8 | > 0.5 | – | – | – | –
9 | CCc1sc2c(c1CC(=O)/N=c1\scc(-c3ccc(C(F)(F)F)c(F)c3)n1COP(=O)(O)O)c(=O)n(C)c(=O)n2C [Example 18, Disodium[2-{[(6-ethyl-1,3-dimethyl-2,4-dioxo-1,2,3,4-tetrahydrothieno[2,3-d]pyrimidin-5-yl)acetyl]imino}-4-[3-fluoro-4-(trifluoromethyl)phenyl]-1,3-thiazol-3(2H)-yl]methyl phosphate] | – | – | – | – | – | 30 | 88.7
10 | Cc1oc2c(c1CC(=O)/N=c1\scc(-c3ccc(OC(F)(F)F)c(Cl)c3)n1COC(=O)[C@@H](N)Cc1ccccc1)c(=O)n(C)c(=O)n2C [Example 24, 4-[3-Chloro-4-(trifluoromethoxy)phenyl]-2-{[(1,3,6-trimethyl-2,4-dioxo-1,2,3,4-tetrahydrofuro[2,3-d]pyrimidin-5-yl)acetyl]imino}-1,3-thiazol-3(2H)-yl]methyl L-phenylalaninate hydrochloride] | 98.1 | 99.8 | < 0.1 | – | – | – | –

More lines, main results first:

Row | inhibition at 1 µM [1] [%] | inhibition at 10 µM [2] [%] | IC50 [µM] | inhibition at 1 µM (CHO, 1.0 μM, read-out: Percentage inhibition at 1.0 μM) [%] | inhibition at 10 µM (CHO, 10.0 μM, read-out: Percentage inhibition at 10.0 μM) [%] | SMILES | inhibition at 1 µM [3] [%] | inhibition at 10 µM [4] [%]
11 | – | – | 0.1 to 0.5 | – | – | Cn1c(=O)c2c(CC(=O)/N=c3\scc(-c4ccc(C(F)(F)F)c(F)c4)n3COP(=O)(O)O)csc2n(C)c1=O [Example 12, Disodium[2-{[(1,3-dimethyl-2,4-dioxo-1,2,3,4-tetrahydrothieno[2,3-d]pyrimidin-5-yl)acetyl]imino}-4-[3-fluoro-4-(trifluoromethyl)phenyl]-1,3-thiazol-3 (2H)-yl]methyl phosphate] | – | –
12 | 70.3 | 96.7 | 0.1 to 0.5 | – | – | Cc1oc2c(c1CC(=O)/N=c1\scc(-c3ccc(OC(F)(F)F)c(Cl)c3)n1COC(=O)C(C)(C)C)c(=O)n(C)c(=O)n2C [Example 19, [4-[3-Chloro-4-(trifluoromethoxy)phenyl]-2-{[(1,3,6-trimethyl-2,4-dioxo-1,2,3,4-tetrahydrofuro[2,3-d]pyrimidin-5-yl)acetyl]imino}-1,3-thiazol-3 (2H)-yl]methyl 2,2-dimethylpropanoate] | – | –
13 | 99.2 | 99.6 | 0.1 to 0.5 | – | – | CC[C@H](C)[C@H](N)C(=O)OCn1c(-c2ccc(OC(F)(F)F)c(Cl)c2)cs/c1=N\C(=O)Cc1c(C)oc2c1c(=O)n(C)c(=O)n2C [Example 22, [4-[3-Chloro-4-(trifluoromethoxy)phenyl]-2-{[(1,3,6-trimethyl-2,4-dioxo-1,2,3,4-tetrahydrofuro[2,3-d]pyrimidin-5-yl)acetyl]imino}-1,3-thiazol-3 (2H)-yl]methyl L-isoleucinate hydrochloride] | – | –
14 | 93.8 | 99.3 | < 0.1 | – | – | Cc1oc2c(c1CC(=O)/N=c1\scc(-c3ccc(C(F)(F)F)c(F)c3F)n1COP(=O)(O)O)c(=O)n(C)c(=O)n2C [Example 27, 4-[2,3-Difluoro-4-(trifluoromethyl)phenyl]-2-{[(1,3,6-trimethyl-2,4-dioxo-1,2,3,4-tetrahydrofuro[2,3-d]pyrimidin-5-yl)acetyl]imino}-1,3-thiazol-3(2H)-yl]methyl dihydrogen phosphate] | – | –
15 | 60 | 99.2 | > 0.5 | – | – | Cn1c(=O)c2c(CC(=O)/N=c3\scc(-c4ccc(C(F)(F)F)c(F)c4F)n3COP(=O)(O)O)nsc2n(C)c1=O [Example 31, [4-[2,3-Difluoro-4-(trifluoromethyl)phenyl]-2-{[(5,7-dimethyl-4,6-dioxo-4,5,6,7-tetrahydro[1,2]thiazolo[5,4-d]pyrimidin-3-yl)acetyl]imino}-1,3-thiazol-3 (2H)-yl]methyl dihydrogen phosphate] | – | –
16 | 13.8 | 81 | > 0.5 | – | – | Cn1c(=O)c2c(CC(=O)N=c3scc(-c4ccc(C(F)(F)F)c(F)c4F)n3COP(=O)(O)O)nsc2n(C)c1=O [Example 32, Disodium-(4-(2,3-difluoro-4-(trifluoromethyl)phenyl)-2-((2-(5,7-dimethyl-4,6-dioxo-4,5,6,7-tetrahydroisothiazolo[5,4-d]pyrimidin-3-yl)acetyl)imino)thiazol-3 (2H)-yl)methyl phosphate] | – | –
